The text below walks through data of US20140212401A1, “USE OF SYNTHETIC AND BIOLOGICAL FUNGICIDES IN COMBINATION FOR CONTROLLING HARMFUL FUNGI” (Bayer CropScience LP, priority 2009, published 2014).

The subject of test [1] is Sclerotinia sclerotiorum. Kind of test: Example 11: inoculated beans, spray treatments, visual % infection of plants. Conditions: Boscalid (CANTUS 1.0 kg/ha) application A.
Description: (§1) Evaluation was carried out by visually determining the infected leaf areas in %.
Beans were cultivated and grown under standard conditions with adequate supply of water and nutrients. The test plants were inoculated with an aqueous spore suspension of Sclerotinia sclerotiorum. […] For comparison, a part of the plants was sprayed with boscalid alone (used as the commercial product CANTUS®, BASF; dose rate per treatment: 1.0 kg/ha; diluted with water to 500 L/ha). […] 28 and 35 days after the first treatment (0 or 7 days after last treatment), the extent of the development of the disease was determined visually in % infection of the plants.
Test [2] concerns Monilinia laxa. Nature of the test: Example 7: inoculated stonefruit, spray treatments, visual % infection of plant.
Description: as §1
Stonefruit was grown under standard conditions with adequate supply of water and nutrients. The test plants were inoculated with an aqueous spore suspension of Monilinia laxa. […] Another part was sprayed both with boscalid and B. subtilis strain QST713. 5 and 11 days after the first treatment (0 or 6 days after last treatment), the extent of the development of the disease was determined visually in % infection of the plant.
Test [3] relates to Bremia lactucae. Kind of test: Example 23: inoculated lettuce, spray treatments, visual % infection of plant. Conditions: Boscalid (CANTUS 1 kg/ha) applications AB.
Description: as §1
The test plants were inoculated with an aqueous spore suspension of Bremia lactucae. […] For comparison, a part of the plants was sprayed with boscalid alone (used as the commercial product CANTUS®, BASF; dose rate per treatment: 1 kg/ha; diluted with water to 500 L/ha). […] 7 days after the last treatment, the extent of the development of the disease was determined visually in % infection of the plant.
Test [4] has as its system Botrytis cinerea. Nature of the test: Example 1: inoculated vine grapes cv. Riesling, spray treatments, visual % infection of racemes.
Description: as §1
Vine grapes of the cultivar “Riesling” were grown under standard conditions with adequate supply of water and nutrients. The test plants were inoculated with an aqueous spore suspension of Botrytis cinerea. […] For comparison, a part of the plants was sprayed with boscalid alone (used as the commercial product CANTUS®, BASF; dose rate per treatment: 1.2 kg/ha; diluted with water to 800 L/ha). […] 95 and 100 days after the first treatment (25 or 30 days after last treatment), the extent of the development of the disease was determined visually in % infection of the racemes.
The test system of test [5] is Cercospora beticola. Kind of test: Example 8: inoculated sugar beets, spray treatments, visual % infection of plant.
Description: as §1
Sugar beets were cultivated and grown under standard conditions with adequate supply of water and nutrients. The test plants were inoculated with an aqueous spore suspension of Cercospora beticola. […] For comparison, a part of the plants was sprayed with pyraclostrobin alone (used as the commercial product HEADLINE®, BASF; dose rate per treatment: 0.6 L/ha; diluted with water to 400 L/ha). […] 46 and 53 days after the first treatment (7 or 14 days after last treatment), the extent of the development of the disease was determined visually in % infection of the plant.
Test [6] deals with Botrytis cinirea (BOTRCI). Kind of test: Example 16: field trial grapevine cv. Müller-Thurgau, natural infection, percent infected clusters.
Description: The trial was conducted under field conditions. Established grapevine plants (cv. Müller-Thurgau) were grown under standard conditions with adequate supply of water and nutrients. The application was repeated 4 to 9 times (see below) with 7-14 days intervals applying single products. No other products or compounds were applied for pathogen control. […] For comparison, a part of the plants was sprayed with dithianon alone (used as the commercial product DELAN®, Bayer CropScience; 0.75 kg/ha). […] BOTRCI infection occurred naturally. Disease incidences were evaluated 21 days after 9th application (21 DAT(9)). Disease levels observed were rated in percent infected clusters in the respective plot given as % attack.
Test [7] concerns Plasmopara viticola. Nature of the test: Example 3: inoculated vine grapes, spray treatments, visual % infection of racemes and leaves, severity and frequency. Conditions: Dithianon (DELAN WG 525 g/ha) applications ABCDEFGHI
Description: as §1
The test plants were inoculated with an aqueous spore suspension of Plasmopara viticola. […] Another part was sprayed both with dithianon and B. subtilis strain QST713. 67 and 73 days after the first treatment (4 or 10 days after last treatment), the extent of the development of the disease was determined visually in % infection of the racemes. 73 days after the first treatment (10 days after last treatment), the severity and the frequency of the infection on the racemes were determined visually [%]. 87 days after the first treatment (14 days after last treatment), the extent of the development of the disease was determined visually in % infection of the leaves.
For test [8], the system named is Venturia inequalis (VENTIN). Nature of the test: Example 18: field trial apple cv. Rubinette, natural infection, percent infected leaf area.
Description: The trial was conducted under field conditions. Established apple plants (cv. Rubinette) were grown under standard conditions with adequate supply of water and nutrients. The application was repeated 6 to 10 times (see below) with 7-14 days intervals applying single products or product mixtures. No other products or compounds were applied for pathogen control. […] VENTIN infection occurred naturally. Disease incidences were evaluated 6 days after 10th application (6 DAT(10)). Disease levels observed were rated in percent infected leaf area in the respective plot given as % attack.
Test [9] has as its system Plasmopara viticola (PLASVI). Kind of test: Example 17: field trial grapevine cv. Müller-Thurgau, natural infection, percent infected leaf area and clusters. The note with it: for Attacked Leaf Area/Clusters 10 DAA(7): percent infected clusters; for Attacked Leaf Area/Clusters 4 DAA(9): percent infected leaf area.
Description: The trial was conducted under field conditions. Established grapevine plants (cv. Müller-Thurgau) were grown under standard conditions with adequate supply of water and nutrients.
The application was repeated 4 to 9 times (see below) with 7-14 days intervals applying single products. No other products or compounds were applied for pathogen control. […] For comparison, a part of the plants was sprayed with dithianon alone (used as the commercial product DELAN®, Bayer CropScience; 0.75 kg/ha). […] Another part was sprayed both with dithianon and B. subtilis strain QST713. PLASVI infection occurred naturally. Disease incidences were evaluated 10 days after 7th application (10 DAA(7)) and 4 days after 9th application (4 DAA(9)). Disease levels observed were rated in percent infected leaf area (4 DAA(9)) and in percent infected clusters (10 DAA(7)) in the respective plot given as % attack.
Test [10] deals with Leveillula taurica. Kind of test: Example 10: inoculated peppers, spray treatments, visual % infection of leaves. Conditions: Metrafenone (VIVANDO 0.2 L/ha) applications AB.
Description: as §1
The test plants were inoculated with an aqueous spore suspension of Leveillula taurica. […] For comparison, a part of the plants was sprayed with metrafenone alone (used as the commercial product VIVANDO®, BASF; dose rate per treatment: 0.2 L/ha; diluted with water to 800 L/ha). […] 35 and 42 days after the first treatment (7 or 14 days after last treatment), the extent of the development of the disease was determined visually in % infection of the leaves.
For test [11], the system named is Sphaerotheca fuliginea. Kind of test: Example 9: inoculated melons, spray treatments, visual % infection of plant.
Description: as §1
Melons were cultivated and grown under standard conditions with adequate supply of water and nutrients. The test plants were inoculated with an aqueous spore suspension of Sphaerotheca fuliginea. […] For comparison, a part of the plants was sprayed with metrafenone alone (used as the commercial product VIVANDO®, BASF; dose rate per treatment: 0.2 L/ha; diluted with water to 500 L/ha). […] 27 and 34 days after the first treatment (1 or 8 days after last treatment), the extent of the development of the disease was determined visually in % infection of the plant.
The test system of test [12] is Erysiphe necator. Nature of the test: Example 29: inoculated grapes, spray treatments, visual % infection of clusters. Conditions: Metrafenone (VIVANDO 0.27 L/ha) applications ABCD.
Description: Grapes were grown under standard conditions with adequate supply of water and nutrients. The test plants were inoculated with an aqueous spore suspension of Erysiphe necator. […] For comparison, a part of the plants was sprayed with metrafenone alone (used as the commercial product VIVANDO®, BASF; dose rate per treatment: 0.27 L/ha; diluted with water to 800 L/ha). […] 11 days after the 6th application, the extent of the development of the disease was determined visually in % infection of the clusters.
The test system of test [13] is Sphaerotheca fuliginea. Nature of the test: Example 27: inoculated cucumbers, spray treatments, visual % infection of leaves. Conditions: 38 days after first treatment; Metrafenone (VIVANDO 0.3 L/ha) applications ABC.
Description: as §1
Cucumbers were cultivated and grown under standard conditions with adequate supply of water and nutrients. The test plants were inoculated with an aqueous spore suspension of Sphaerotheca fuliginea. […] For comparison, a part of the plants was sprayed metrafenone alone (used as the commercial product VIVANDO®, BASF; dose rate per treatment: 0.3 L/ha; diluted with water to 500 L/ha). […] 38 days after the first treatment, the extent of the development of the disease was determined visually in % infection of the leaves.
Test [14] deals with Erysiphe necator (UNCINE). Nature of the test: Example 15: field trial grapevine cv. Müller-Thurgau, natural infection, percent infected clusters.
Description: The trial was conducted under field conditions. Established grapevine plants (cv. Müller-Thurgau) were grown under standard conditions with adequate supply of water and nutrients. The application was repeated 3 to 6 times (see below) with 14 days intervals applying single products. No other products or compounds were applied for pathogen control. […] For comparison, a part of the plants was sprayed with metrafenone alone (used as the commercial product VIVANDO®, BASF; 0.2 L/ha). […] UNCINE infection occurred naturally. Disease incidences were evaluated 6 days after 5th application (6 DAT(5)) and 15 days after 6th application (15 DAT(6)). Disease levels observed were rated in percent infected clusters in the respective plot given as % attack.
For test [15], the system named is Uncinula necator. Nature of the test: Example 13: inoculated grapes, spray treatments, visual % infection of raceme and leaves. Type of test: in vivo. An excerpt: The results are compiled in Table 13 below.
Test [16] deals with Sphaerotheca fuliginea. Kind of test: Example 12: inoculated cucurbits, spray treatments, visual % infection of upperside of leaves. The note with it: 38 days after first treatment, Metrafenone (VIVANDO 0.2 L/ha) applications ABC. In kind it is in vivo. The text has this:
The results are compiled in Table 12 below.

Test [17] has as its system Uncinula necator. Nature of the test: Example 2: inoculated vine grapes, spray treatments, visual % infection of racemes.
Description: Vine grapes were grown under standard conditions with adequate supply of water and nutrients. The test plants were inoculated with an aqueous spore suspension of Uncinula necator. […] For comparison, a part of the plants was sprayed with metrafenone alone (used as the commercial product VIVANDO®, BASF; dose rate per treatment: 0.02 Vol.-%; diluted with water to 800 L/ha). […] 85 and 91 days after the first treatment (15 or 21 days after last treatment), the extent of the development of the disease was determined visually in % infection of the racemes.
Test [18] deals with Pseudoperonospora cubensis. Kind of test: Example 4: inoculated cucurbits, spray treatments, visual % infection of leaves. Type of test: in vivo. The note with it: 28 days after first treatment. An excerpt: The results are compiled in Table 4 below. [table]
[19] abbreviates: Boscalid application A (pyraclostrobin/boscalid mixture PRISTINE 0.66 g/ha).
[20] abbreviates: Boscalid applications AB (pyraclostrobin/boscalid mixture PRISTINE 0.66 g/ha).
The mark [21] stands for this setting: Boscalid (CANTUS 1.2 kg/ha) applications AB.
Where [22] appears, read: Boscalid (CANTUS 1.2 kg/ha) applications ABC.
[23] abbreviates: Pyraclostrobin (HEADLINE 0.6 L/ha) application A.
[24] abbreviates: Pyraclostrobin (HEADLINE 0.6 L/ha) applications AB.
Setting [25] is: Pyraclostrobin (HEADLINE 0.6 L/ha) applications ABC.
Where [26] appears, read: Dithianon (DELAN 0.75 kg/ha) applications ABCD.
The mark [27] stands for this setting: Dithianon (DELAN 0.75 kg/ha) applications ABCDEFGHI
The mark [28] stands for this setting: Metrafenone (VIVANDO 0.2 L/ha) application A.
Where [29] appears, read: Metrafenone (VIVANDO 0.2 L/ha) applications AB.
[30] abbreviates: Metrafenone (VIVANDO 0.2 L/ha) applications ABC.
Where [31] appears, read: Metrafenone (VIVANDO 0.2 L/ha) applications ABCDEF.
The mark [32] stands for this setting: Metrafenone (VIVANDO 0.2 L/ha) applications ABCDE.
[33] abbreviates: Metrafenone (VIVANDO 0.2 L/ha) applications ABCDEFG.
Where [34] appears, read: Metrafenone (VIVANDO 0.02 Vol.-%) applications ABC.
The mark [35] stands for this setting: Metrafenone (VIVANDO 0.02 Vol.-%) applications ABCD.

Take `O=C(Nc1ccccc1-c1ccc(Cl)cc1)c1cccnc1Cl` [Boscalid, boscalid]: in [1], the “Attack on Plant 28 DAT” value is recorded as 30% and the “Attack on Plant 35 DAT” value was 53%. Moreover, in [2] (setting [19]), the “Attack on Plant 5 DAT” value is listed as 1.8% and the “Attack on Plant 11 DAT” value is listed as 36%. Also, in test [2] (setting [20]), the “Attack on Plant 5 DAT” value is 1.8% and the “Attack on Plant 11 DAT” value came to 29%. Also, the “Attack on Plant 7 DALT” value in test [3] worked out at 14%. In [4] (setting [21]), the “Attack on Raceme 95 DAT” value was 35% and the “Attack on Raceme 100 DAT” value is on record as 44%. Moreover, in [4] (setting [22]), the “Attack on Raceme 95 DAT” value turned out to be 28% and the “Attack on Raceme 100 DAT” value turned out to be 36%.

Consider `COC(=O)N(OC)c1ccccc1COc1ccn(-c2ccc(Cl)cc2)n1` [Pyraclostrobin, pyraclostrobin], for which the “Attack on Plant 46 DAT” value in [5] (setting [23]) is reported as 11%; in test [5] (setting [24]), 4.7%; in test [5] (setting [25]), 2.7%. The “Attack on Plant 53 DAT” value is recorded as 17% in [5] (setting [23]), 5.7% in test [5] (setting [24]) and 3.7% in [5] (setting [25]).

For the compound `N#Cc1sc2c(=O)c3ccccc3c(=O)c=2sc1C#N` [Dithianon, dithianon], the “Attacked Clusters 21 DAT(9)” value in [6] (setting [26]) worked out at 12%. For the same compound, the “Attacked Clusters 21 DAT(9)” value in [6] (setting [27]) amounted to 15%. For the same compound, in [7], the “Attack on Leaves 87 DAT” value worked out at 25%, the “Attack on Raceme 67 DAT” value was 34% and the “Attack on Raceme 73 DAT” value was 48%. Besides, in test [7] (infection on racemes), the “Frequency 73 DAT” value was 37% and the “Severity 73 DAT” value was 7.5%. In addition, the “Attacked Leaf Area 6 DAT10” value in test [8] (Dithianon (DELAN 0.75 kg/ha) applications ABCDEF) is given as 12%. Moreover, the “Attacked Leaf Area 6 DAT10” value in test [8] (Dithianon (DELAN 0.75 kg/ha) applications ABCDEFGHIJ) is recorded as 7.3%. In [9] (setting [26]), the “Attacked Leaf Area/Clusters 10 DAA(7)” value came to 30% and the “Attacked Leaf Area/Clusters 4 DAA(9)” value is 11%. Further, in [9] (setting [27]), the “Attacked Leaf Area/Clusters 10 DAA(7)” value is listed as 25% and the “Attacked Leaf Area/Clusters 4 DAA(9)” value is recorded as 7.5%.

Consider `COc1cc(C)c(C(=O)c2c(OC)ccc(Br)c2C)c(OC)c1OC` [Metrafenone, metrafenone], for which, in test [10], the “Attack on Plant 35 DAT” value is on record as 22% and the “Attack on Plant 42 DAT” value came to 43%. In addition, in test [11] (setting [28]), the “Attack on Plant 27 DAT” value is listed as 24% and the “Attack on Plant 34 DAT” value is given as 32%. In [11] (setting [29]), the “Attack on Plant 27 DAT” value came out at 9.2% and the “Attack on Plant 34 DAT” value was found to be 14%. Moreover, the “Attack on clusters 11 DAA (6)” value in test [12] was determined as 25%. The “Attack on Leaves” value in test [13] was found to be 15%. Besides, in test [14] (setting [30]), the “Attacked Clusters 6 DAT(5)” value was 7.9% and the “Attacked Clusters 15 DAT(6)” value is recorded as 26%. In addition, in test [14] (setting [31]), the “Attacked Clusters 6 DAT(5)” value is 2.2% and the “Attacked Clusters 15 DAT(6)” value stood at 4.2%. For the same compound, in test [15] (setting [32]), the “Attack on Leaves 76 DAT” value amounted to 4.3%, the “Attack on Leaves 90 DAT” value was 35%, the “Attack on Raceme 76 DAT” value is on record as 8.3% and the “Attack on Raceme 90 DAT” value is 43%. In addition, in [15] (setting [33]), the “Attack on Leaves 76 DAT” value was 3.0%, the “Attack on Leaves 90 DAT” value was 13%, the “Attack on Raceme 76 DAT” value was found to be 6.0% and the “Attack on Raceme 90 DAT” value amounted to 22%. Further, the “Attack on Leaves” value in [16] is reported as 50%. Moreover, in test [17] (setting [34]), the “Attack on Raceme 85 DAT” value was determined as 26% and the “Attack on Raceme 91 DAT” value amounted to 32%. In addition, in test [17] (setting [35]), the “Attack on Raceme 85 DAT” value came to 11% and the “Attack on Raceme 91 DAT” value amounted to 14%.

With `CCCCCCCCc1c(CC)nc2ncnn2c1N` [BAS 650, 5-ethyl-6-octyl-[1,2,4]triazolo[1,5-a]pyrimidine-7-ylamine], the “Attack on Leaves” value is given as 7% in [18] (BAS 650 (BAS 650 00F 1.2 L/ha) applications AB) and 6.2% in test [18] (BAS 650 (BAS 650 00F 1.2 L/ha) applications ABC).
